Laboratory results as given in patent US12624024B2, “EP2 antagonist compounds” (Reservoir Neuroscience, Inc., priority 2021, dated 2026).

Key:
[1] = Human Liver Microsome Stability; assay type: in vitro ADME; settings: human liver microsomes 0.5 mg/mL, 37° C., 60 min; for half-life at 2 μM: read-out: T1/2 (microsomal); for microsomal CLint at 2 μM: read-out: in vitro CLint (microsomal)
Method: The tested compound was incubated in duplicate with human liver microsomes (0.5 mg/mL) at 37° C. These incubations were carried out at a final test article concentration of 2 μM over a total incubation period of 60 minutes. Samples were taken at 0, 15, 30, 45 and 60 min and the reaction terminated by addition of 4 volumes of acetonitrile containing internal standard (100 nM alprazolam, 200 nM imipramine, 200 nM labetalol and 2 μM ketoprofen). Diclofenac was used as a positive control in this study. The samples were analyzed by UPLC-MS/MS to determine the concentration of the test compound and the percent remaining, intrinsic clearance (in vitro CLint) and half-life (T1/2) values were calculated.
(§1) Chromatographic analyses were performed on a Shimadzu UPLC apparatus (Kyoto, Japan) consisting of a gradient pump (model LC-30AD), an automatic injector (model HTC PAL System) and an on-line degasser (model DGU-20A5R). Detection was a triple quadrupole tandem mass spectrometer equipped with a turbo ion spray interface (API 4000/Triple Quad 4500/Triple Quad 5500/Triple Quad 6500). Data acquisition and integration were carried out with LC-MS software (Analyst 1.6) linked directly to the LC-MS/MS system. Chromatographic separations were achieved on a XSelect Hss T3 2.5μ (2.1×30 mm) Column. The mobile phase was 0.1% formic acid in water (A) and 0.1% formic acid in acetonitrile (B). The flow rate was 1.0 mL/min and column was maintained at 40° C.
Half-life (T1/2) data is measured in minutes, and in Table B2, the data is grouped into categories of by the following rules: • T1/2 (microsomal): A=100+; B=50 to 100; C=20 to 50; D<20.
In vitro clearance (CLint) data is measured in μL/min/mg prot, and in Table B2, the data is grouped into categories of by the following rules: • CLint (microsomal): A<20; B=20 to 50; C=50 to 100; and D=100+.

[2] = Human Hepatocyte Stability; assay type: in vitro ADME; settings: human hepatocytes 0.5×10^6 cells/mL, 120 min; for half-life at 1 μM: read-out: T1/2 (hepatic); for microsomal CLint at 1 μM: read-out: in vitro CLint (hepatic)
Method: The tested compound was incubated in duplicate with incubation media (Williams' Medium E with 1× GlutaMAX) containing human hepatocytes (0.5×10^6 cells/mL). These incubations were carried out at a final test concentration of 1 μM over a total incubation period of 120 minutes. Samples were taken at 0, 15, 30, 60, 90 and 120 min and the reaction was terminated by addition of acetonitrile containing internal standard (100 nM alprazolam, 200 nM labetalol, 200 nM caffeine and 200 nM diclofenac). Verapamil was used as the positive control in this study. The samples were analyzed by UPLC-MS/MS to determine the concentration of the tested compound and the percentage remaining, intrinsic clearance (in vitro CLint) and half-life (t½) values were calculated.
as §1
Half-life (T1/2) data is measured in minutes, and in Table B2, the data is grouped into categories of by the following rules: • T1/2 (hepatic): A=200+; B=100 to 200; C=50 to 100; and D<50.
In vitro clearance (CLint) data is measured in μL/min/mg prot, and in Table B3, the data is grouped into categories of by the following rules: • CLint (microsomal): A<5; B=5 to 10; C=10 to 20; and D=20+.

EP2 receptor = target: T1, EP2 receptor (Homo sapiens, UniProt P43116); experiment: EP2 Potency Assay (cAMP TR-FRET, CHO-K1 cells transfected with EP2 receptor, PGE2 at EC80); assay type: cell-based; settings: CHO-K1 cells expressing EP2, prostaglandin E2 at EC80, read-out: EP2 Potency (IC50 category)
T1 construct: expressed in transfected cells; host or cells: CHO-K1 cells (ATCC), transient transfection with FuGENE 6
Outline: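 CHO-K1 cells transiently transfected with EP2 and seeded 24 h after transfection. IC50 from curve fit of percent inhibition versus concentration.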

T1 sequence (P43116 whole entry): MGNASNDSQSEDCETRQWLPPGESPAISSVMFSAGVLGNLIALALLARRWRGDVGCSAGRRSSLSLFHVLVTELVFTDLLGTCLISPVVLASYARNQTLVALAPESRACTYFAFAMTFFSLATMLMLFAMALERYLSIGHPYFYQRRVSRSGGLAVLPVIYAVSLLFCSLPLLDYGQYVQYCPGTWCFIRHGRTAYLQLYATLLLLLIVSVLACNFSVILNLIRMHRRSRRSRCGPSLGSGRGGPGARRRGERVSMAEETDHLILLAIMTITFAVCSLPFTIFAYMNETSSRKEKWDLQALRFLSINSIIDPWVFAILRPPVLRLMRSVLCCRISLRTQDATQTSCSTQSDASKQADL

half-life at 2 μM [1] | microsomal CLint at 2 μM [1] | half-life at 1 μM [2] | microsomal CLint at 1 μM [2] | IC50 (EP2 receptor) | Structure (SMILES)
50 to 100 min | 20 to 50 µL/min/mg | < 50 min | > 20 µL/min/mg | 100 to 500 nM | C[C@@H]1COc2c(Cl)cc(-n3ccc4cc(F)ccc43)cc2CN1Cc1cnc(=O)[nH]c1 [Compound 9]
< 20 min | > 100 µL/min/mg | 50 to 100 min | > 20 µL/min/mg | < 100 nM | C[C@@H]1COc2c(Cl)cc(-n3ccc4cc(F)ccc43)cc2CN1Cc1cnc(N)nc1 [Compound 11, 5-{[9-chloro-7-(5-fluoroindol-1-yl)-3-methyl-3,5-dihydro-2H-1,4-benzoxazepin-4-yl]methyl}pyrimidin-2-amine]
< 20 min | 50 to 100 µL/min/mg |  |  | 100 to 500 nM | COc1ncc(CN2CCOc3c(Cl)cc(-n4ccc5cc(F)ccc54)cc3C2)cn1 [Compound 13]
> 100 min | < 20 µL/min/mg | > 200 min | 5 to 10 µL/min/mg | < 100 nM | O=c1ncc(CN2CCOc3c(Cl)cc(-n4ccc5cc(F)ccc54)cc3C2)c[nH]1 [Compound 58]
< 20 min | > 100 µL/min/mg |  |  | 500 to 1000 nM | Cc1c(CN2CCOc3c(Cl)cc(-n4ccc5cc(F)ccc54)cc3C2)cnn1C [Compound 106, 9-chloro-4-((1,5-dimethyl-1H-pyrazol-4-yl)methyl)-7-(5-fluoro-1H-indol-1-yl)-2,3,4,5-tetrahydrobenzo[f][1,4]oxazepane]
< 20 min | 50 to 100 µL/min/mg | 100 to 200 min | 10 to 20 µL/min/mg | < 100 nM | Nc1ncc(CN2CCOc3c(Cl)cc(-n4ccc5cc(F)ccc54)cc3C2)cn1 [Compound 146]
20 to 50 min | 20 to 50 µL/min/mg |  |  | 500 to 1000 nM | Nc1cnc(CN2CCOc3c(Cl)cc(-n4ccc5cc(F)ccc54)cc3C2)cn1 [Compound 170]
< 20 min | > 100 µL/min/mg | < 50 min | > 20 µL/min/mg | 100 to 500 nM | Fc1ccc2c(ccn2-c2cc(Cl)c3c(c2)CN(Cc2ccnc(C4COC4)c2)CCO3)c1 [Compound 187, 9-chloro-7-(5-fluoroindol-1-yl)-4-{[2-(oxetan-3-yl)pyridin-4-yl]methyl}-3,5-dihydro-2H-1,4-benzoxazepine]
20 to 50 min | 50 to 100 µL/min/mg |  |  | 1000 to 5000 nM | O=C1CC(CN2CCOc3c(Cl)cc(-n4ccc5cc(F)ccc54)cc3C2)=NN1 [Compound 198, 5-{[9-chloro-7-(5-fluoroindol-1-yl)-3,5-dihydro-2H-1,4-benzoxazepin-4-yl]methyl}-2,4-dihydropyrazol-3-one]
20 to 50 min | 20 to 50 µL/min/mg |  |  | 1000 to 5000 nM | O=C1CC(CN2CCOc3c(Cl)cc(-n4ccc5cc(F)ccc54)cc3C2)CCN1 (centres unmarked) [Compound 200, 4-{[9-chloro-7-(5-fluoroindol-1-yl)-3,5-dihydro-2H-1,4-benzoxazepin-4-yl]methyl}piperidin-2-one]
50 to 100 min | 20 to 50 µL/min/mg |  |  | 500 to 1000 nM | O=C1NC=C(CN2CCOc3c(Cl)cc(-n4ccc5cc(F)ccc54)cc3C2)CN1 [Compound 202]
< 20 min | 50 to 100 µL/min/mg |  |  | 100 to 500 nM | O=c1cc(CN2CCOc3c(Cl)cc(-n4ccc5cc(F)ccc54)cc3C2)cco1 [Compound 203, 4-{[9-chloro-7-(5-fluoroindol-1-yl)-3,5-dihydro-2H-1,4-benzoxazepin-4-yl]methyl}pyran-2-one]
20 to 50 min | 20 to 50 µL/min/mg | 100 to 200 min | 5 to 10 µL/min/mg |  | O=c1cc(CN2CCOc3c(Cl)cc(-n4ccc5cc(F)ccc54)cc3C2)cc[nH]1 [Ref, 4-((9-chloro-7-(5-fluoro-1H-indol-1-yl)-2,3-dihydrobenzo[f][1,4]oxazepin-4(5H)-yl)methyl)pyridin-2(1H)-one, reference compound]
